Reference: article PMC5112578, “Zika antiviral chemotherapy: identification of drugs and promising starting points for drug discovery from an FDA-approved library” (F1000Research, 2016)
Counter-ions that a name gives are not always drawn. Like-named read-outs stand apart in the source and are kept apart here. Numbered stars: 1 amine (or outer) side, 2 acyl side, 3 side chain; on linkers, the order of the positions; unused ones are H or OH. Bridge positions count the residues as written; N and C are the ends. Square brackets hold non-standard residues; d marks the D form. Peptide text beside a SMILES is read from it. I, II: the chains in the order shown. Actinocin(9to1) = Cc1c2oc3c(C)ccc(C(=O)[*:1])c3nc-2c(C(=O)[*:2])c(N)c1=O; NMeV = CN[C@H](C(=O)O)C(C)C; Sar = CNCC(=O)O

What was measured:
Zika virus (ZIKV) [1] = tested on: Zika virus (ZIKV)
[2] = Table 2; no reference given; cited from earlier work
Zika virus (ZIKV) [3] = assay: ZIKV high content screening assay (infection ratio by immunofluorescence in Huh7); settings: for Max. Activity (% of infection inhibition) / S.I. (CC 50/EC 50): Table 2; for Max. Activity (% of infection inhibition): dose-response; for Max. Activity (% of infection inhibition) / activity: Huh7, ZIKV, 72 h; for activity: in our assay, library screened at 20 µM; for S.I. (CC 50/EC 50): SI = CC50/EC50, Huh7; for SI: SI = CC50/EC50
Huh7 cells = assay: Cell toxicity / cell ratio in the ZIKV high content assay; settings: for toxicity: in our assay, library screened at 20 µM, Huh7, 72 h; for CC50: Table S2, 50% reduction in cell viability vs infected IFNα2A treated cells, 72 h
[4] = in humans; no reference given; cited from earlier work
[5] = Table S2, 9 point DRC from 50 µM, Huh7, ZIKV MOI 0.5, 72 h

For `O=c1[nH]cc(F)c(=O)[nH]1` [5-Fluorouracil], the “S.I. (CC 50/EC 50)” value (Zika virus (ZIKV) [1]) is listed as greater than 2.5, the “Water Solubility” value [2] is listed as 12500 µg/mL and the “Max. Activity (% of infection inhibition)” value (Zika virus (ZIKV) [3]) is listed as 57%. For the same compound, the EC50 (Zika virus (ZIKV) [3]; Zika virus, Huh-7, 72 h) was 14.3 ± 8.6 µM.

In the case of `O=c1cnn([C@@H]2O[C@H](CO)[C@@H](O)[C@H]2O)c(=O)[nH]1` [6-Azauridine], the “Water Solubility (mg/mL)” value [2] is given as “Very high”, the “Max. Activity (% of infection inhibition)” value (Zika virus (ZIKV) [3]) is given as 88.3% and the EC50 (Zika virus (ZIKV) [3]; Zika virus, Huh-7, 72 h) is given as 2.3 ± 0.1 µM.

In the case of `Cn1cnc([N+](=O)[O-])c1Sc1ncnc2nc[nH]c12` [Azathioprine], the toxicity (Huh7 cells) is reported as “higher than 50%”.

For `CC(C)/N=c1\cc2n(-c3ccc(Cl)cc3)c3ccccc3nc-2cc1Nc1ccc(Cl)cc1` [Clofazimine], the activity (Zika virus (ZIKV) [3]) was “lower than 50%”.

In the case of `Cc1c2oc3c(C)ccc(C(=O)N[C@@H]4C(=O)N[C@H](C(C)C)C(=O)N5CCC[C@H]5C(=O)N(C)CC(=O)N(C)[C@@H](C(C)C)C(=O)O[C@@H]4C)c3nc-2c(C(=O)N[C@@H]2C(=O)N[C@H](C(C)C)C(=O)N3CCC[C@H]3C(=O)N(C)CC(=O)N(C)[C@@H](C(C)C)C(=O)O[C@@H]2C)c(N)c1=O` [Dactinomycin] (I: T[dV]P[Sar][NMeV] / II: T[dV]P[Sar][NMeV]; ester I:1-I:C, II:1-II:C; linker I:N-II:N via Actinocin(9to1)), the toxicity (Huh7 cells) is reported as “higher than 50%”.

In the case of `C[C@H]1O[C@@H](O[C@H]2[C@@H](O)C[C@H](O[C@H]3[C@@H](O)C[C@H](O[C@H]4CC[C@@]5(C)[C@H](CC[C@@H]6[C@@H]5C[C@@H](O)[C@]5(C)[C@@H](C7=CC(=O)OC7)CC[C@]65O)C4)O[C@@H]3C)O[C@@H]2C)C[C@H](O)[C@@H]1O` [Digoxin], the toxicity (Huh7 cells) is reported as “higher than 50%”.

In the case of `CO[C@@H]1[C@@H](O[C@@H]2O[C@H](C)[C@@H](O[C@H]3C[C@@](C)(O)[C@@H](OC(=O)CC(C)C)[C@H](C)O3)[C@H](N(C)C)[C@H]2O)[C@@H](CC=O)C[C@@H](C)[C@@H](O)/C=C/C=C/C[C@@H](C)OC(=O)C[C@H]1O` [Kitasamycin], the “Water Solubility” value [2] is listed as 50 µg/mL, the “S.I. (CC 50/EC 50)” value (Zika virus (ZIKV) [3]) is listed as greater than 1.2 and the “Max. Activity (% of infection inhibition)” value (Zika virus (ZIKV) [3]) is listed as 69.1%. The EC50 (Zika virus (ZIKV) [3]; Zika virus, Huh-7, 72 h) was 41.7 ± 10.1 µM.

For `CC[C@H](C)C(=O)O[C@H]1C[C@@H](C)C=C2C=C[C@H](C)[C@H](CC[C@@H]3C[C@@H](O)CC(=O)O3)[C@H]21` [Lovastatin], the “S.I. (CC 50/EC 50)” value (Zika virus (ZIKV) [3]) was greater than 2.5, the “Max. Activity (% of infection inhibition)” value (Zika virus (ZIKV) [3]) was 60.7% and the EC50 (Zika virus (ZIKV) [3]; Zika virus, Huh-7, 72 h) was 20.7 ± 8.6 µM.

For `COC(=O)Nc1nc2ccc(C(=O)c3ccccc3)cc2[nH]1` [Mebendazole], the toxicity (Huh7 cells) was “higher than 50%”.

For `OC(c1cc(C(F)(F)F)nc2c(C(F)(F)F)cccc12)C1CCCCN1` (centres unmarked) [Mefloquine], the toxicity (Huh7 cells) was “higher than 50%”.

In the case of `S=c1[nH]cnc2nc[nH]c12` [Mercaptopurine], the activity (Zika virus (ZIKV) [3]) is reported as “lower than 50%”.

With `COc1c2occc2cc2ccc(=O)oc12` [Methoxsalen] the activity (Zika virus (ZIKV) [3]) was “lower than 50%”.

For `O=C1c2cccc3c2[C@H](CCC3)CN1[C@@H]1CN2CCC1CC2` [Palonosetron], the “S.I. (CC 50/EC 50)” value (Zika virus (ZIKV) [1]) is given as greater than 3.06, the “Water Solubility (mg/mL)” value [2] is given as “Very high” and the bioavailability [4] is given as 97%. The “Max. Activity (% of infection inhibition)” value (Zika virus (ZIKV) [3]) was 97.7% and the EC50 (Zika virus (ZIKV) [3]; Zika virus, Huh-7, 72 h) was 16.3 ± 7.7 µM.

In the case of `Clc1ccc2c(c1)CCc1cccnc1C2=C1CCNCC1` [SAM001246545], the CC50 (Huh7 cells) is reported as 20.7 ± 4.1 µM.

Compound `Cc1ccc(NC(=O)c2ccc(CN3CCN(C)CC3)cc2)cc1Nc1nccc(-c2cccnc2)n1` [SAM001246622] has an EC50 (Zika virus (ZIKV) [3]; [5]) of 13.3 ± 5.8 µM.

Compound `COCCCC/C(=N\OCCN)c1ccc(C(F)(F)F)cc1.O=C(O)/C=C\C(=O)O` [SAM001246977] has a CC50 (Huh7 cells) of 24.3 ± 3.1 µM, an EC50 (Zika virus (ZIKV) [3]; [5]) of 17 ± 3.6 µM and an SI (Zika virus (ZIKV) [3]; Table S2) of 1.43.

`CN1CCN(CCCN2c3ccccc3Sc3ccc(Cl)cc32)CC1.O=C(O)/C=C\C(=O)O.O=C(O)/C=C\C(=O)O` [SAM001247054] showed a CC50 (Huh7 cells) of 9 ± 4.4 µM, an EC50 (Zika virus (ZIKV) [3]; [5]) of 10.3 ± 3.1 µM and an SI (Zika virus (ZIKV) [3]; Table S2) of 0.87.

`Clc1ccccc1C(c1ccccc1)(c1ccccc1)n1ccnc1` [SAM001247056] gave a CC50 (Huh7 cells) of 8.7 ± 1.2 µM, an EC50 (Zika virus (ZIKV) [3]; [5]) of 14.3 ± 3.5 µM and an SI (Zika virus (ZIKV) [3]; Table S2) of 0.6.

In the case of `CC(C)c1ccc2c(c1)c(SC(C)(C)C)c(CC(C)(C)C(=O)O)n2Cc1ccc(Cl)cc1` [SAM001247075], the CC50 (Huh7 cells) is reported as 33.7 ± 10.8 µM, the EC50 (Zika virus (ZIKV) [3]; [5]) is reported as 12 ± 1.7 µM and the SI (Zika virus (ZIKV) [3]; Table S2) is reported as 2.8.

Compound `Oc1cc2c(cc1O)[C@H]1c3ccccc3CN[C@@H]1CC2` [SAM001247083] has a CC50 (Huh7 cells) of 16.5 µM and an EC50 (Zika virus (ZIKV) [3]; [5]) of 21.5 ± 0.7 µM.

For `N=C(NCc1ccc(Cl)cc1)SCCCc1c[nH]cn1` [SAM001247107], the CC50 (Huh7 cells) was 19.3 ± 9.7 µM, the EC50 (Zika virus (ZIKV) [3]; [5]) was 14 µM and the SI (Zika virus (ZIKV) [3]; Table S2) was 1.38.

Compound `CC(CN1c2ccccc2Sc2ccccc21)N(C)C.Cl` (centres unmarked) [SAM002264636] has a CC50 (Huh7 cells) of 28.3 ± 17.6 µM, an EC50 (Zika virus (ZIKV) [3]; [5]) of 19.7 ± 4.5 µM and an SI (Zika virus (ZIKV) [3]; Table S2) of 1.44.

`CN1C2CCC1CC(OC(c1ccccc1)c1ccccc1)C2.CS(=O)(=O)O` (centres unmarked) [SAM002548938] showed a CC50 (Huh7 cells) of 31.3 ± 15.3 µM, an EC50 (Zika virus (ZIKV) [3]; [5]) of 21.3 ± 10 µM and an SI (Zika virus (ZIKV) [3]; Table S2) of 1.47.

With `Clc1ccc2c(c1)C(N1CCNCC1)=Nc1ccccc1O2` [SAM002564189] the CC50 (Huh7 cells) was 11.7 ± 11 µM, the EC50 (Zika virus (ZIKV) [3]; [5]) was 19.3 ± 5.5 µM and the SI (Zika virus (ZIKV) [3]; Table S2) was 0.6.

With `CN[C@H]1CC[C@@H](c2ccc(Cl)c(Cl)c2)c2ccccc21` [Sertraline-HCl] the activity (Zika virus (ZIKV) [3]) was “lower than 50%”.
